# Test results taken from patent US10548915B2, “Combination therapy for EV71 infection” (SUN JET BIOTECHNOLOGY INC., priority 2015, dated 2020).
# System: EV71 replication in RD cells
# Assay: anti-VP1 western blot of EV71-infected RD cells (VP1/vimentin ratio normalized to non-treated infected cells)
# Type: cell-based, enterovirus type 71 (EV71 strain 4643/TW/1998)
# Procedure: Antibodies—Used antibodies included rabbit anti-VP1 (GTX70007, 1:2000, GeneTex), mouse anti-vimentin (sc-6260, 1:1000, Santa Cruz).
# Cell lines, viruses and viral infection—RD (Human rhabdomyosarcoma, ATCC® CCL-136™) cells were grown in Dulbecco's modified Eagle's medium (Sigma, USA) containing 10% fetal bovine serum (Invitrogen, USA), at 5% CO2 and 37° C. EV71 strain 4643/TW/1998 (GeneBank accession number 1N544418.1) was kindly provided by Dr. Lih-Hwa Hwang at National Yang-Ming University, Taiwan. Viruses were added to RD cells which were cultured in DMEM containing 2% FBS. The newly generated viruses were titrated by cytopathology assay. For viral infection, cells were seeded at 80% confluency in 6-well dishes and grown overnight. Before challenge with viruses of 5 multiplicity of infection (MOI), old medium was replaced with serum-free medium. After 1 h adsorption of viruses, infected cells were cultured in DMEM with 10% FBS.
# Western blotting—Protein extracted from RD cells were resolved with electrophoresis. Protein were blotted onto a nitrocellulose membrane eletrophoretically and incubated with indicated antibodies. The immunoreactive bands were visualized with LAS-4000 (FUJIFLIM).
# [1] = single compound at 0.005 μM (so in the source), RD cells, EV71 MOI 5
# [2] = single compound at 5 μM, RD cells, EV71 MOI 5
Structure (SMILES),"anti-EV71 effect (VP1 expression), in words (single compound at 0.05 μM)",VP1 expression relative to non-treated infected cells [1],"anti-EV71 effect (VP1 expression), in words (single compound at 5 μM)",VP1 expression relative to non-treated infected cells [2],other results
CC[C@H]1CN2CCc3cc(OC)c(OC)cc3[C@@H]2C[C@@H]1C[C@H]1NCCc2cc(OC)c(OC)cc21 [emetine],VP1 expression returning,,,,"anti-EV71 effect (VP1 expression), in words (single compound at 0.5-5 μM): strong blockage of EV71 expression"
CC(=O)OC[C@H]1O[C@@H]([S-])[C@H](OC(C)=O)[C@@H](OC(C)=O)[C@@H]1OC(C)=O.CCP(CC)CC.[Au+] [auranofin],minimal effects,0.9,strong anti-EV71,0.05,
"CNCC[C@H](Oc1ccc(C(F)(F)F)cc1)c1ccccc1 [fluoxetine, S-(+)-fluoxetine]",,,,,"VP1 expression relative to non-treated infected cells (single compound, all tested concentrations (5, 0.5, 0.05 μM)): 0.9-1.0"
C[C@@H]1O[C@@H](O[C@H]2C[C@@H](O)[C@]3(CO)[C@H]4[C@H](O)C[C@]5(C)[C@@H](C6=CC(=O)OC6)CC[C@]5(O)[C@@H]4CC[C@]3(O)C2)[C@H](O)[C@H](O)[C@H]1O [ouabain],,,,,"anti-EV71 effect (VP1 expression), in words (single compound at 0.005 μM): VP1 expression returning; anti-EV71 effect (VP1 expression), in words (single compound at 0.05-5 μM): strong blockage of EV71 expression"
O=C(Nc1ccc([N+](=O)[O-])cc1Cl)c1cc(Cl)ccc1O [niclosamide],minimal effects,0.9,strong anti-EV71,0.2,
